Test [1] has as its system β-catenin signaling in Caco-2 colon tumor cells. In words: Western blotting of β-catenin, cyclin D1, survivin, Caco-2. The class given is cell-based, human. The procedure: (§1) Western blotting was performed as described previously. Cells were treated with ADT-094 or vehicle for 8 hours before cell lysates were collected.
Test [2] deals with HCT116 colon tumor cells. In words: Growth assay (Cell Titer Glo), HCT116. The class given is cell-based, human. The conditions noted are these: Homo sapiens, HCT-116; 72 hours of treatment; read-out: HCT116 growth IC50. How it is done: All cell lines were expanded upon delivery, and numerous aliquots of low passage cells were preserved in liquid N2. Cells were passaged no longer than 2 months. Tumor cell lines obtained from ATCC were characterized by STR profiling as performed by ATCC. The NCM460 line was characterized by INCELL as described previously (e.g. tumorigenicity testing). No additional re-authentication of the cell lines was performed except for experimental reasons (e.g. confirmation of cell doubling time, morphology, sensitivity to SS, PDE5/10 expression levels, etc). Cells were plated in 96-well microtiter plates at a density of 5,000 cells per well. For drug treatment, cells were treated with compound or vehicle, and incubated at 37°C for 72 hours. […] For siRNA assays, cells were transfected with siRNA under the same condition described above. The effect of treatment on cell growth was measured using the Cell Titer Glo Assay as specified by the manufacturer (Promega). The IC50 values were determined as described previously. All experiments were repeated a minimum of three times to determine the reproducibility of the results. All error bars represent standard error of the mean (SEM). Statistical analysis of differences between samples was performed using the Student’s t-test.

Another test has as its target T1, purified ovine COX-2 (Ovis aries, UniProt P79208).
T1 construct: purchased Cayman
T1 sequence (P79208 17-603): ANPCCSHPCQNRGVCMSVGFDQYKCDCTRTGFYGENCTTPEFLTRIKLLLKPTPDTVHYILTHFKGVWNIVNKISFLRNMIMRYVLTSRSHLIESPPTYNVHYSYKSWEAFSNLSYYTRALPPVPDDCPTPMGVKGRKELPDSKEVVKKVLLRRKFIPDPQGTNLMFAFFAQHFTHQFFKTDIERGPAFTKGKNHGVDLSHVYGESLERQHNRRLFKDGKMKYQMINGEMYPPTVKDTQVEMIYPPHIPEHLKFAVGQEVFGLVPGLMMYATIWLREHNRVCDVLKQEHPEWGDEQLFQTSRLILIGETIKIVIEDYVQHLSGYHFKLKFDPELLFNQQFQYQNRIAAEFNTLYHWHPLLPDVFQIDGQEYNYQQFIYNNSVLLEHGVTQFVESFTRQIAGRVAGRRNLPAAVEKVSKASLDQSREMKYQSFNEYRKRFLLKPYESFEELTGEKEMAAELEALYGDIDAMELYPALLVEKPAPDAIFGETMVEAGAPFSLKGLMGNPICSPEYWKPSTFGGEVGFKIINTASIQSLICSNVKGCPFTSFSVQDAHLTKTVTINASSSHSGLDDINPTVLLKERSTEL
In words: COX-2 colorimetric assay. The class given is biochemical. How it is done: COX-1 and COX-2 activities were measured using purified ovine COX-1 and COX-2 with colorimetric assay kits obtained from Cayman as previously reported. The activities of COX-1 and COX-2 were measured after the addition of arachidonic acid and incubation at 25°C for 5 min by absorbance at 590 nm as specified by the manufacturer.
The IC50 values were determined as described previously. All experiments were repeated a minimum of three times to determine the reproducibility of the results. All error bars represent standard error of the mean (SEM). Statistical analysis of differences between samples was performed using the Student’s t-test. A P value of < 0.05 was considered statistically significant.

For test [3], the system named is intracellular cGMP in normal colonocytes. In words: cGMP assay (EIA), colonocytes. The class given is cell-based, human. The settings on record: 45 min of treatment. The procedure: Cells were plated at a density of 1 × 10^6 cells per 10 cm tissue culture dish, incubated for 48 hours, and treated with ADT-094 or vehicle control. After 45 min of treatment, cells were lysed and assayed for cGMP content using the cGMP Direct Biotrak EIA kit (GE Healthcare Life Sciences). The assay was done according to the manufacturer’s specifications.

For test [4], the system named is HCT116 colon tumor cells. In words: Apoptosis assay (Caspase 3/7 Glo), HCT116. It counts as cell-based, human. The conditions noted are these: caspase-3 and -7, 6 hours of treatment. The procedure: Cells were plated in 96-well microtiter plates at a density of 10,000 cells per well, and allowed to attach overnight. Cells were treated with ADT-094 or vehicle, and incubated at 37°C for 6 hours. All apoptosis assays were done in 5% serum using either tumor cells or normal colonocytes. The induction of apoptosis caused by treatment was determined using Caspase 3/7 Glo Assay (Promega), which is a luminescent assay that measures substrate cleavage by caspases-3 and -7. The assay was done according to manufacturer’s specifications.

Test [5] relates to β-catenin signaling in HCT116 colon tumor cells. In words: Western blotting of β-catenin, cyclin D1, survivin, HCT116. The class given is cell-based, human. How it is done: as §1
Test [6] has as its system β-catenin/TCF transcriptional activity in SW480 cells. In words: TOP-FLASH luciferase reporter assay, SW480. The class given is cell-based, human. The settings on record: SW480, 24 hours of treatment. How it is done: Cells were seeded at a density of 5 × 10^4 cells per well in 24-well tissue culture plates and incubated overnight at 37°C. Cells were transiently transfected with 0.1 μg TOP-FLASH constructs (Millipore) and 0.1 μg β-galactosidase-expressing vector (Promega). After 24 hours of transfection, cells were treated with ADT-094 or vehicle for 24 hours. At the end of treatment, cells were lysed and both luciferase and β-galactosidase activities were measured using kits from Promega. All luciferase activity was normalized to β-galactosidase activity.

On to `COc1ccc2c(c1)C(CC(=O)NCc1ccco1)=C(C)/C2=C/c1cc(OC)c(OC)c(OC)c1` [ADT-094, (Z)-N-(furan-2-ylmethyl)-2-(5-methoxy-2-methyl-1-(3,4,5-trimethoxybenzylidene)-1H-inden-3-yl) acetamide], for which the “levels of cyclin D1 and survivin” value in test [1] and in test [5] was “also decreased” each time. Further, the β-catenin levels entry in test [1] and in test [5] was “dose-dependent decrease” throughout. In addition, the IC50 is 0.1 µM in the test with HCT116 colon tumor cells [2] and 145 µM against purified ovine COX-2 (Figure 3A). Further, the COX-2 inhibitory activity result at purified ovine COX-2 (in words) is reported as “essentially lacks”. Besides, the “intracellular cGMP levels” value in test [3] is listed as “did not significantly affect”. For the same compound, the “caspase activity (apoptosis)” value in the test with HCT116 colon tumor cells [4] was “increased caspase activity”. Further, the β-catenin/TCF transcriptional activity result in test [6] is given as “significantly inhibited”.

These data come from paper PMC4694998, “Suppression of β-catenin/TCF transcriptional activity and colon tumor cell growth by dual inhibition of PDE5 and 10” (Oncotarget, 2015).
